The test system of data set [1] is myelofibrosis patients. The note with it: cited from earlier work.
The subject of data set [2] is CD34+ cells isolated from the bone marrow of two healthy donors. Put plainly: Megakaryocyte differentiation and proliferation, alone and with ruxolitinib, 10 days (FACS). The note with it: 240 h. It is filed as cell-based. An excerpt:
The cells were then harvested for FACS analysis with live/dead stain and gating with CD34 (progenitor marker) and CD41a and CD42b (mature megakaryocyte markers).

The source of these data is US12070464B2, “Methods of treating myeloproliferative disorders” (priority 2019, dated 2024).

SMILES strings stand for the structures. Where two headings read alike, the source gives them in different places.

`N#CC[C@H](C1CCCC1)n1cc(-c2ncnc3[nH]ccc23)cn1` [Ruxolitinib, (R)-3-(4-(7H-pyrrolo[2,3-d]pyrimidin-4-yl)-1H-pyrazol-1-yl)-3-cyclopentylpropanenitrile phosphate, reference compound]: in data set [1] (Curr Hematol Malig Rep 2017), the “effect on mutant allele burden and bone marrow fibrosis” value is on record as “does not affect the mutant allele burden or bone marrow fibrosis”. The “effect on red blood cell production and hemoglobin levels” value in data set [1] (in vivo) was “known to decrease red blood cell production and hemoglobin levels”. The EC50 came to 517 nM in data set [2] (10 days, Donor 1, percent of cells double positive for CD41a and CD42b, read-out: Megakaryocyte differentiation EC50); 312 nM in data set [2] (10 days, Donor 1, read-out: Megakaryocyte live count EC50); 288 nM in data set [2] (10 days, Donor 1, read-out: Total live count EC50); 676 nM in data set [2] (10 days, Donor 1, read-out: Viability EC50); 535 nM in data set [2] (10 days, Donor 2, percent of cells double positive for CD41a and CD42b, read-out: Megakaryocyte differentiation EC50); 258 nM in data set [2] (10 days, Donor 2, read-out: Megakaryocyte live count EC50). Moreover, the EC50 in data set [2] (10 days, Donor 2, read-out: Total live count EC50) amounted to 259 nM; in data set [2] (10 days, Donor 2, read-out: Viability EC50) it was 611 nM; in data set [2] (10 days, Mean of two donors, read-out: Megakaryocyte differentiation EC50), 526 nM; in data set [2] (10 days, Mean of two donors, read-out: Megakaryocyte live count EC50) it was 285 nM; in data set [2] (10 days, Mean of two donors, read-out: Viability EC50), 644 nM; in data set [2] (read-out: Total live count EC50 (overall cell proliferation)), 274 nM.
